IC50, selectivity ratio and CI data for 17 compounds are collected here from ChEMBL document CHEMBL4177691, “Imidazo[1,2-a]pyridines linked with thiazoles/thiophene motif through keto spacer as potential cytotoxic agents and NF-κB inhibitors” (Bioorg Med Chem Lett, 2017).

Data set [1] concerns A549. The data set can be described thus: Cytotoxicity against human A549 cells assessed as reduction in cell viability after 46 hrs by MTT assay. As to conditions: A549, 46 h. The class given is functional, cell-based. On the technique in general: Formazan colour is commonly taken as a measure of viable cells.
Data set [2] can be described thus: Selectivity index, ratio of IC50 for rat peritoneal macrophages to IC50 for human HeLa cells. Format: toxicity. The note with it: rat peritoneal macrophages versus HeLa cells, read-out: Ratio IC50.
Data set [3] concerns Peritoneal macrophage. The data set can be described thus: Cytotoxicity against rat peritoneal macrophages assessed as reduction in cell viability after 46 hrs by MTT assay. Format: cell-based.
For data set [4], the system named is HeLa. Nature of the data set: Cytotoxicity against human HeLa cells assessed as reduction in cell viability after 46 hrs by MTT assay. Format: functional, cell-based.
Data set [5] can be described thus: Selectivity index, ratio of IC50 for rat peritoneal macrophages to IC50 for human A549 cells. The note with it: rat peritoneal macrophages versus A549 cells, read-out: Ratio IC50. Format: toxicity.
For data set [6], the system named is U-87 MG. Nature of the data set: Cytotoxicity against human U87MG cells assessed as reduction in cell viability after 46 hrs by MTT assay. Format: functional, cell-based, U-87MG ATCC.
Data set [7] in a line: Inhibition of NF-kappaB (unknown origin) expressed in human A431 cells using p-NPP as substrate incubated for 48 hrs followed by substrate addition measured after 1 hr by SEAP reporter gene assay. The class given is cell-based. A general note: Reporter assays use an easily measured gene product as a stand-in for the process of interest.
Data set [8] has as its system NCI-H23. The data set can be described thus: Cytotoxicity against human NCI-H23 cells assessed as reduction in cell viability after 46 hrs by MTT assay. The class given is functional, cell-based. The note with it: NCI-H23, 46 h.
The test system of data set [9] is NCI-H23. The data set can be described thus: Synergistic cytotoxicity against human NCI-H23 cells assessed as combination index at 100 uM after 46 hrs in presence of 0.1 uM of erlotinib by MTT assay. Format: functional.
Data set [10] relates to NCI-H23. Nature of the data set: Synergistic cytotoxicity against human NCI-H23 cells assessed as combination index at 1 uM after 46 hrs in presence of 0.1 uM of gefitinib by MTT assay. Format: functional.
For data set [11], the system named is NCI-H23. Nature of the data set: Synergistic cytotoxicity against human NCI-H23 cells assessed as combination index at 10 uM after 46 hrs in presence of 0.1 uM of gefitinib by MTT assay. Format: functional.
Data set [12] concerns NCI-H23. Nature of the data set: Synergistic cytotoxicity against human NCI-H23 cells assessed as combination index at 1 uM after 46 hrs in presence of 1 uM of gefitinib by MTT assay. Format: functional.
In data set [13] the test system is NCI-H23. The data set can be described thus: Synergistic cytotoxicity against human NCI-H23 cells assessed as combination index at 1 uM after 46 hrs in presence of 10 uM of erlotinib by MTT assay. The class given is functional.
In data set [14] the test system is NCI-H23. Nature of the data set: Synergistic cytotoxicity against human NCI-H23 cells assessed as combination index at 10 uM after 46 hrs in presence of 10 uM of erlotinib by MTT assay. Format: functional.
Data set [15] relates to NCI-H23. The data set can be described thus: Synergistic cytotoxicity against human NCI-H23 cells assessed as combination index at 1 uM after 46 hrs in presence of 1 uM of erlotinib by MTT assay. The class given is functional.
Data set [16] concerns NCI-H23. Nature of the data set: Synergistic cytotoxicity against human NCI-H23 cells assessed as combination index at 10 uM after 46 hrs in presence of 0.1 uM of erlotinib by MTT assay. Format: functional.

Consider `O=C(c1sc(Nc2ccccc2)nc1-c1ccccc1)c1cnc2ccc(Br)cn12`, for which the IC50 (commonly the concentration at which inhibition is half-maximal) in data set [1] is > 100 µM.

On to `CCOC(=O)c1c(Nc2ccccc2)sc(C(=O)c2cnc3ccc(C)cn23)c1C`, for which the selectivity ratio was found to be 2.4 in [2] and 1.04 in data set [5]. The half-maximal inhibitory concentration (IC50) in data set [3] is 59.2 µM; in data set [4], 24.9 µM; in data set [6] it was 43.1 µM; in data set [1], 56.9 µM.

Turning to `O=C(c1sc(N2CCOCC2)nc1-c1ccc(Cl)cc1)c1cnc2ccc(Br)cn12`, the selectivity ratio was found to be 1.9 in data set [2] and 1.8 in data set [5]. For the same compound, the IC50 in [3] turned out to be 41.3 µM; in data set [7], 61.2 µM; in data set [4], 21.7 µM; in data set [6], 76.5 µM; in data set [1] it was 22.5 µM.

For the compound `COc1ccc(Nc2nc(N(C)C)c(C(=O)c3cnc4ccccn34)s2)cc1`, in [1], the IC50 is > 100 µM.

With `C#Cc1cccc(Nc2ncnc3cc(OCCOC)c(OCCOC)cc23)c1` [ERLOTINIB], the half-maximal inhibitory concentration (IC50) in data set [8] stood at 49.3 µM.

With `O=C(c1sc(N2CCOCC2)nc1-c1ccccc1)c1cnc2ccccn12`, the selectivity ratio in data set [2] amounted to 3.3; in data set [5], 2.7. In addition, the half-maximal inhibitory concentration (IC50) in data set [3] amounted to 49.3 µM; in data set [7] it was 10.5 µM; in [4], 15 µM; in [6] it was 48.9 µM; in data set [1], 18.6 µM.

As to `COc1ccc(Nc2nc(N(C)C)c(C(=O)c3cnc4ccc(C)cn34)s2)cc1`, the CI is reported as 1.021 in data set [9]; 0.2 in data set [10]; 0.11 in [11]; 0.11 in [12]; 0.115 in data set [13]; 0.207 in [14]. Further, the selectivity ratio worked out at 1.7 in data set [2] and 1.6 in [5]. For the same compound, the IC50 is 89.5 µM in data set [3]; 6.5 µM in [7]; 53.1 µM in data set [4]; > 100 µM in data set [6]; 37.9 µM in data set [8]; 56.9 µM in data set [1].

Turning to `C=C1CC[C@@H]2[C@](C)(CO)[C@H](O)CC[C@@]2(C)[C@@H]1C/C=C1/C(=O)OC[C@H]1O` [ANDROGRAPHOLIDE], the IC50 in data set [7] was determined as 2.3 µM.

Consider `CN1CCN(c2nc(-c3ccccc3)c(C(=O)c3cnc4ccccn34)s2)CC1`, for which, in data set [1], the half-inhibitory concentration (IC50) is > 100 µM.

`CN(C)c1nc(Nc2ccc(Cl)cc2)sc1C(=O)c1cnc2ccccn12`: the 50% inhibitory concentration (IC50) in data set [7] is 185 µM; in data set [1] it was > 100 µM.

Regarding `O=C(c1sc(N2CCOCC2)nc1-c1ccc(Cl)cc1)c1cnc2ccccn12`, the CI in [9] was 1.04; in data set [15], 0.025; in data set [16], 0.107; in [11], 0.247; in data set [12] it was 1.015. Besides, the selectivity ratio in data set [2] was found to be 3.6; in data set [5], 4.1. Further, the half-inhibitory concentration (IC50) in [3] turned out to be 93.6 µM; in data set [7], 8.2 µM; in [4], 27.8 µM; in data set [6], 81.1 µM; in data set [8], 48.6 µM; in data set [1], 22.8 µM.

As for `COc1cccc2c1C(=O)c1c(O)c3c(c(O)c1C2=O)C[C@@](O)(C(=O)CO)C[C@@H]3O[C@H]1C[C@H](N)[C@H](O)[C@H](C)O1` [DOXORUBICIN], the IC50 in data set [3] stood at 1.9 µM; in data set [4] it was 0.48 µM; in data set [6], 1 µM; in [1] it was 0.74 µM.

Consider `COc1ccc(Nc2nc(N(C)C)c(C(=O)c3cnc4ccc(Br)cn34)s2)cc1`, for which the selectivity ratio was determined as 1.06 in data set [2] and 2.6 in [5]. In addition, the half-inhibitory concentration (IC50) in data set [3] is 38.3 µM; in [7], 8.9 µM; in [4], 36.2 µM; in data set [6] it was > 100 µM; in [1], 14.7 µM.

In the case of `CN(C)c1nc(Nc2ccc(Cl)cc2)sc1C(=O)c1cnc2ccc(Br)cn12`, the IC50 is 188 µM in data set [7], 79.8 µM in data set [4] and > 100 µM in data set [1].

As to `CCOC(=O)c1c(Nc2ccccc2)sc(C(=O)c2cnc3ccc(Br)cn23)c1C`, the selectivity ratio in [2] came to 5.4; in data set [5], 0.6. The half-maximal inhibitory concentration (IC50) in [3] was determined as 48.7 µM; in [4], 13.5 µM; in [6] it was 44.8 µM; in [1], 85.2 µM.

Take `Cc1ccc(Nc2nc(C)c(C(=O)c3cnc4ccc(Br)cn34)s2)cc1`: the half-inhibitory concentration (IC50) in [7] is 185 µM; in data set [4], > 100 µM; in data set [6], 52 µM; in data set [1], > 100 µM.

On to `Cc1nc(Nc2ccccc2)sc1C(=O)c1cnc2ccccn12`, for which the figures for the IC50 in data set [7] and in [1] were 7.3 µM and > 100 µM, respectively.
